Assay results taken from ChEMBL document CHEMBL2074101, “Cloning and characterization of a rat H+/peptide cotransporter mediating absorption of beta-lactam antibiotics in the intestine and kidney” (J Pharmacol Exp Ther, 1995).

What was measured:
Format in all cases: functional, cell-based
Conditions in all cases: Oocyte
[1] = target: T1, Solute carrier family 15 member 1 (Rattus norvegicus) (UniProt P51574); test: TP_TRANSPORTER: inhibition of Cephradine uptake (Cephradine: 3000 uM, Carnosine: 10000 uM) in Xenopus laevis oocytes
T1 sequence (whole entry): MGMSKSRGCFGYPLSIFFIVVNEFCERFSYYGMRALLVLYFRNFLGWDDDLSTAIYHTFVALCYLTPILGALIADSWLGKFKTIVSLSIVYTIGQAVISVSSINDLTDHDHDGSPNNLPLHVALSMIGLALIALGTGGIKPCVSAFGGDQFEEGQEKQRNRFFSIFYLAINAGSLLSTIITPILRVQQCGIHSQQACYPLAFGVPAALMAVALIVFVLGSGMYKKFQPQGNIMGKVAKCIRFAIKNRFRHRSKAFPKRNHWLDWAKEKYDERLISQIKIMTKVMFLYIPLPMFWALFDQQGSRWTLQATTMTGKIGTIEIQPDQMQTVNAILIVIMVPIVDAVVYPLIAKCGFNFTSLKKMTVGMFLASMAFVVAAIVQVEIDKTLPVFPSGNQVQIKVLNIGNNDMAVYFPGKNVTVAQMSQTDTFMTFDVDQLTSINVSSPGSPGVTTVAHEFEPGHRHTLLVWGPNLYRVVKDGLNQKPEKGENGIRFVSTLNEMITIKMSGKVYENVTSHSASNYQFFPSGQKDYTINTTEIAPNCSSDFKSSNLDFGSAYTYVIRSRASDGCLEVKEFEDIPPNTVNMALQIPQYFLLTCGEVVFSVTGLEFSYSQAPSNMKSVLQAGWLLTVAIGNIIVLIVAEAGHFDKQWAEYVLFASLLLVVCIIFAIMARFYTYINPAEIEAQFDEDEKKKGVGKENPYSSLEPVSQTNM

[2] = target: T1, Solute carrier family 15 member 1 (Rattus norvegicus); test: TP_TRANSPORTER: inhibition of Ceftibuten uptake (Ceftibuten: 1000 uM, Carnosine: 10000 uM) in Xenopus laevis oocytes
[3] = target: T1, Solute carrier family 15 member 1 (Rattus norvegicus); test: TP_TRANSPORTER: inhibition of Cephradine uptake (Cephradine: 3000 uM, Ceftibuten: 10000 uM) in Xenopus laevis oocytes
[4] = target: T1, Solute carrier family 15 member 1 (Rattus norvegicus); test: TP_TRANSPORTER: inhibition of Ceftibuten uptake (Ceftibuten: 1000 uM, Cephradine: 10000 uM) in Xenopus laevis oocytes
[5] = target: T1, Solute carrier family 15 member 1 (Rattus norvegicus); test: TP_TRANSPORTER: inhibition of Cephradine uptake (Cephradine: 3000 uM, Gly-Leu: 10000 uM) in Xenopus laevis oocytes
[6] = target: T1, Solute carrier family 15 member 1 (Rattus norvegicus); test: TP_TRANSPORTER: inhibition of Ceftibuten uptake (Ceftibuten: 1000 uM, Gly-Leu: 10000 uM) in Xenopus laevis oocytes
[7] = target: T1, Solute carrier family 15 member 1 (Rattus norvegicus); test: TP_TRANSPORTER: inhibition of Ceftibuten uptake (Ceftibuten: 1000 uM, Bestatin: 10000 uM) in Xenopus laevis oocytes
[8] = target: T1, Solute carrier family 15 member 1 (Rattus norvegicus); test: TP_TRANSPORTER: inhibition of Cephradine uptake (Cephradine: 3000 uM, Bestatin: 10000 uM) in Xenopus laevis oocytes
[9] = substrate: Nc1nc(/C(=C/CC(=O)O)C(=O)N[C@@H]2C(=O)N3C(C(=O)O)=CCS[C@H]23)cs1; test: (§1) TP_TRANSPORTER: uptake in Xenopus laevis oocytes
[10] = substrate: CC1=C(C(=O)O)N2C(=O)[C@@H](NC(=O)[C@H](N)C3=CCC=CC3)[C@H]2SC1; test: as §1

NCCC(=O)N[C@@H](Cc1c[nH]cn1)C(=O)O
Activity [1]: inhibitor [+]
Activity [2]: inhibitor [+]

Nc1nc(/C(=C/CC(=O)O)C(=O)N[C@@H]2C(=O)N3C(C(=O)O)=CCS[C@H]23)cs1
Activity [3]: inhibitor [+]

CC1=C(C(=O)O)N2C(=O)[C@@H](NC(=O)[C@H](N)C3=CCC=CC3)[C@H]2SC1
Activity [4]: is not an inhibitor [-]

CC(C)C[C@H](NC(=O)CN)C(=O)O
Activity [5]: inhibitor [+]
Activity [6]: inhibitor [+]

CC(C)C[C@H](NC(=O)[C@@H](O)[C@H](N)Cc1ccccc1)C(=O)O
Activity [7]: inhibitor [+]
Activity [8]: inhibitor [+]

B1: Solute carrier family 15 member 1 (Rattus norvegicus), P51574 (protein)
chain: MGMSKSRGCFGYPLSIFFIVVNEFCERFSYYGMRALLVLYFRNFLGWDDDLSTAIYHTFVALCYLTPILGALIADSWLGKFKTIVSLSIVYTIGQAVISVSSINDLTDHDHDGSPNNLPLHVALSMIGLALIALGTGGIKPCVSAFGGDQFEEGQEKQRNRFFSIFYLAINAGSLLSTIITPILRVQQCGIHSQQACYPLAFGVPAALMAVALIVFVLGSGMYKKFQPQGNIMGKVAKCIRFAIKNRFRHRSKAFPKRNHWLDWAKEKYDERLISQIKIMTKVMFLYIPLPMFWALFDQQGSRWTLQATTMTGKIGTIEIQPDQMQTVNAILIVIMVPIVDAVVYPLIAKCGFNFTSLKKMTVGMFLASMAFVVAAIVQVEIDKTLPVFPSGNQVQIKVLNIGNNDMAVYFPGKNVTVAQMSQTDTFMTFDVDQLTSINVSSPGSPGVTTVAHEFEPGHRHTLLVWGPNLYRVVKDGLNQKPEKGENGIRFVSTLNEMITIKMSGKVYENVTSHSASNYQFFPSGQKDYTINTTEIAPNCSSDFKSSNLDFGSAYTYVIRSRASDGCLEVKEFEDIPPNTVNMALQIPQYFLLTCGEVVFSVTGLEFSYSQAPSNMKSVLQAGWLLTVAIGNIIVLIVAEAGHFDKQWAEYVLFASLLLVVCIIFAIMARFYTYINPAEIEAQFDEDEKKKGVGKENPYSSLEPVSQTNM
Km [9]: 900 µM
Km [10]: 12.4 mM
